Patent publication US7179806B2, “Δ1-pyrrolines used as pesticides” (Bayer Cropscience AG, priority 2000, dated 2007)

Test system: army worm (Spodoptera exigua) caterpillars
Experiment: Spodoptera exigua test (cabbage leaves dipped)
Format: in vivo
Details: active compound concentration 500 ppm
Experimental: (§1) Spodoptera Exigua Test To produce a suitable preparation of active compound, 1 part by weight of active compound is mixed with the stated amounts of solvent and emulsifier, and the concentrate is diluted with emulsifier-containing water to the desired concentration. Cabbage leaves (Brassica oleracea) are treated by being dipped into the preparation of active compound of the desired concentration and are populated with army worm (Spodoptera exigua) caterpillars whilst the leaves are still moist. After the desired period of time, the kill in % is determined. 100% means that all caterpillars have been killed; 0% means that none of the caterpillars have been killed.

| SMILES | Kill rate in % after 7 d |
| --- | --- |
| Fc1cccc(F)c1C1=NC(c2ccc(-c3ccc(OCC(F)(F)F)nc3)cc2)CC1 (stereo not shown) [drawing 277] | 100% |
| CCCN(CC)c1ncc(-c2ccc(C3CCC(c4c(F)cccc4F)=N3)cc2)cn1 (stereo not shown) [drawing 278] | 100% |

Same assay, conditions: active compound concentration 1000 ppm

| SMILES | Kill rate in % after 7 d |
| --- | --- |
| Fc1cccc(F)c1C1=NC(c2ccc(-c3ccc(N4CCOCC4)nc3)cc2)CC1 (stereo not shown) [drawing 279] | 100% |

Test system: Heliothis virescens caterpillars
Experiment: Heliothis virescens test (soya bean shoots dipped)
Format: in vivo
Details: active compound concentration 40 ppm
Experimental: as §1, with “Heliothis Virescens” for “Spodoptera Exigua”, “Soya bean shoots (Glycine max)” for “Cabbage leaves (Brassica oleracea)”, “Heliothis virescens” for “army worm (Spodoptera exigua)”

| SMILES | Kill rate in % after 7 d |
| --- | --- |
| Fc1cccc(F)c1C1=NC(c2ccc(-c3ccc(OCC(F)(F)F)nn3)cc2)CC1 (stereo not shown) [drawing 264] | 100% |
| CC(C)Oc1ncc(-c2ccc(C3CCC(c4c(F)cccc4F)=N3)cc2)cn1 (stereo not shown) [drawing 265] | 100% |
| Fc1cccc(F)c1C1=NC(c2ccc(-c3ccc(C(F)(F)F)cn3)cc2)CC1 (stereo not shown) [drawing 266] | 100% |
| CCCN(CC)c1ncc(-c2ccc(C3CCC(c4c(F)cccc4F)=N3)cc2)cn1 (stereo not shown) [drawing 268] | 100% |

Same assay, conditions: active compound concentration 500 ppm

| SMILES | Kill rate in % after 7 d |
| --- | --- |
| Fc1cccc(F)c1C1=NC(c2ccc(-c3ccc(OCC(F)(F)F)nc3)cc2)CC1 (stereo not shown) [drawing 267] | 100% |
| Fc1cccc(F)c1C1=NC(c2ccc(-c3ccc(N4CCOCC4)nc3)cc2)CC1 (stereo not shown) [drawing 269] | 100% |

Test system: greenhouse red spider mite (tetranychus urticae)
Experiment: Tetranychus test (OP-resistant/dip treatment)
Format: in vivo
Details: active compound concentration 100 ppm, OP-resistant, dip treatment
Experimental: Tetranychus Test (OP Resistant/Dip Treatment)
To produce a suitable preparation of active compound, 1 part by weight of active compound is mixed with the stated amounts of solvent and emulsifier, and the concentrate is diluted with emulsifier-containing water to the desired concentration.
Bean plants (Phaseolus vulgaris) which are heavily infested by all stages of the greenhouse red spider mite (tetranychus urticae) are dipped into a preparation of active compound of the desired concentration.
After the desired period of time, the effect in % is determined. 100% means that all spider mites have been killed; 0% means that none of the spider mites have been killed.

| SMILES | Kill rate in % after 7 d |
| --- | --- |
| Fc1cccc(F)c1C1=NC(c2ccc(-c3cncnc3)cc2)CC1 (stereo not shown) [drawing 293] | 98% |
| Fc1cccc(F)c1C1=NC(c2ccc(-c3ccc(Cl)cn3)cc2)CC1 (stereo not shown) [drawing 294] | 98% |
| CN(C)c1ncc(-c2ccc(C3CCC(c4c(F)cccc4F)=N3)cc2)cn1 (stereo not shown) [drawing 295] | 98% |
| CC(C)Oc1ncc(-c2ccc(C3CCC(c4c(F)cccc4F)=N3)cc2)cn1 (stereo not shown) [drawing 296] | 98% |
| CC(C)Sc1ccc(-c2ccc(C3CCC(c4c(F)cccc4F)=N3)cc2)nn1 (stereo not shown) [drawing 297] | 98% |
| Fc1cccc(F)c1C1=NC(c2ccc(-c3cnc(N4CCOCC4)nc3)cc2)CC1 (stereo not shown) [drawing 298] | 98% |
| Fc1cccc(F)c1C1=NC(c2ccc(-c3ccc(Cl)nc3)cc2)CC1 (stereo not shown) [drawing 299] | 98% |
